Measured values: patent US12679824B2 (Hoffmann-La Roche Inc., priority 2020, dated 2026)
In brackets after ≈: the same amount, converted by molar mass.

The compounds below were run on Acinetobacter baumannii ATCC17961 (assay: 90% Growth Inhibitory Concentration (IC90) determination, antimicrobial susceptibility testing). Details: Acinetobacter baumannii, ATCC17961, 16 h, Acinetobacter baumannii ATCC17961; Iso-Sensitest broth; growth by optical density at 600 nm over 16h; concentration inhibiting 90% of the growth; read-out: ATCC 17961 IC90.
Type: cell-based
Method in brief: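 Broth microdilution in Iso-Sensitest medium, compounds twofold diluted (e.g. 50–0.097 μM final), inoculum ~5×10^(5) CFU/ml, 35±2° C. OD600 was read every 20 min over 16 h. IC90 was derived from growth inhibition during logarithmic growth.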
`Cc1nc(-n2cc(-c3cnc(C(=O)Nc4ccc(C(=O)N5CCN(C(=O)C6CCNCC6)CC5)c(Cl)c4)n3C)c(C(F)(F)F)n2)ccc1N` [Example Z86, 5-[1-(5-amino-6-methylpyridin-2-yl)-3-(trifluoromethyl)pyrazol-4-yl]-N-[3-chloro-4-[4-(piperidine-4-carbonyl)piperazine-1-carbonyl]phenyl]-1-methylimidazole-2-carboxamide] gave an IC90 of 290 nM. Work on `Cn1c(-c2cn(-c3cnc(N)cn3)nc2C(F)(F)F)cnc1C(=O)Nc1ccc(C(=O)N2CCN(C(=O)C3CCNCC3)CC2)c(Cl)c1` [Example Z29, 5-[1-(5-aminopyrazin-2-yl)-3-(trifluoromethyl)pyrazol-4-yl]-N-[3-chloro-4-(4-isonipecotoylpiperazine-1-carbonyl)phenyl]-1-methyl-imidazole-2-carboxamide] yielded an IC90 of 600 nM. `CNc1ccc(-n2cc(-c3cnc(C(=O)Nc4ccc(C(=O)N5CCN(C(=O)C6CCNCC6)CC5)c(C)c4)n3C)c(C(F)(F)F)n2)nc1` [Example D6, 1-methyl-5-[1-[5-(methylamino)-2-pyridyl]-3-(trifluoromethyl)pyrazol-4-yl]-N-[3-methyl-4-[4-(piperidine-4-carbonyl)piperazine-1-carbonyl]phenyl]imidazole-2-carboxamide] gave an IC90 of 370 nM. `CN1CCC(C(=O)N2CCN(C(=O)c3ccc(NC(=O)c4ncc(-c5cn(-c6ccc(N)cn6)nc5C#N)n4C)cc3Cl)CC2)CC1` [Example C11, 5-[1-(5-amino-2-pyridyl)-3-cyano-pyrazol-4-yl]-N-[3-chloro-4-[4-(1-methylpiperidine-4-carbonyl)piperazine-1-carbonyl]phenyl]-1-methyl-imidazole-2-carboxamide] was tested, and the IC90 was 2000 nM. Compound `Cn1c(-c2cn(-c3ccc(N)cn3)nc2C(F)(F)F)cnc1C(=O)Nc1ccc(C(=O)NCCOCCNC(=O)[C@@H]2C[C@@H](O)CN2)c(Cl)c1` [Example Z40, 5-[1-(5-amino-2-pyridyl)-3-(trifluoromethyl)pyrazol-4-yl]-N-[3-chloro-4-[2-[2-[[(2S,4R)-4-hydroxyprolyl]amino]ethoxy]ethylcarbamoyl]phenyl]-1-methyl-imidazole-2-carboxamide] has an IC90 of 780 nM. `COc1cc(-n2cc(-c3cnc(C(=O)Nc4ccc(C(=O)N5CCN(C(=O)C6CCNCC6)CC5)c(Cl)c4)n3C)c(C(F)(F)F)n2)ccn1` [Example Z73, N-[3-chloro-4-(4-isonipecotoylpiperazine-1-carbonyl)phenyl]-5-[1-(2-methoxy-4-pyridyl)-3-(trifluoromethyl)pyrazol-4-yl]-1-methyl-imidazole-2-carboxamide] was tested, and the IC90 was 950 nM. With `Cn1c(-c2cn(-c3nccc(N)n3)nc2C(F)(F)F)cnc1C(=O)Nc1ccc(C(=O)N2CCN(C(=O)C3CCNCC3)CC2)c(Cl)c1` [Example A15, 5-[1-(4-aminopyrimidin-2-yl)-3-(trifluoromethyl)pyrazol-4-yl]-N-[3-chloro-4-[4-(piperidine-4-carbonyl)piperazine-1-carbonyl]phenyl]-1-methyl-imidazole-2-carboxamide] the IC90 was 590 nM. `Cn1c(-c2cn(-c3ccc(N)cn3)nc2C(F)(F)F)cnc1C(=O)Nc1ccc(C(=O)N2CCC(C(=O)N3CCNC(CO)C3)CC2)c(Cl)c1` (stereo not shown) [Example H2, 5-[1-(5-amino-2-pyridyl)-3-(trifluoromethyl)pyrazol-4-yl]-N-[3-chloro-4-[4-[3-(hydroxymethyl)piperazine-1-carbonyl]piperidine-1-carbonyl]phenyl]-1-methyl-imidazole-2-carboxamide] gave an IC90 of 880 nM. With `CN(C)c1ccnc(-n2cc(-c3cnc(C(=O)Nc4ccc(C(=O)N5CCN(C(=O)C6CCNCC6)CC5)c(Cl)c4)n3C)c(C(F)(F)F)n2)n1` [Example A17, N-[3-chloro-4-[4-(piperidine-4-carbonyl)piperazine-1-carbonyl]phenyl]-5-[1-[4-(dimethylamino)pyrimidin-2-yl]-3-(trifluoromethyl)pyrazol-4-yl]-1-methyl-imidazole-2-carboxamide] the IC90 was 500 nM. `Cn1c(-c2cn(-c3ccc(N)cn3)nc2C(F)(F)F)cnc1C(=O)Nc1ccc(C(=O)NC2CN(C(=O)[C@@H]3C[C@@H](O)CN3)CC2CO)c(Cl)c1` (stereo partly drawn) [Example Z27, 5-[1-(5-amino-2-pyridyl)-3-(trifluoromethyl)pyrazol-4-yl]-N-[3-chloro-4-[[1-[(2S,4R)-4-hydroxyprolyl]-4-methylol-pyrrolidin-3-yl]carbamoyl]phenyl]-1-methyl-imidazole-2-carboxamide] was tested, and the IC90 was 1180 nM. Compound `COc1ccc(-n2cc(-c3cnc(C(=O)Nc4ccc(C(=O)N5CCN(C(=O)C6CCNCC6)CC5)c(Cl)c4)n3C)c(C(F)(F)F)n2)cn1` [Example Z75, N-[3-chloro-4-(4-isonipecotoylpiperazine-1-carbonyl)phenyl]-5-[1-(6-methoxy-3-pyridyl)-3-(trifluoromethyl)pyrazol-4-yl]-1-methyl-imidazole-2-carboxamide] has an IC90 of 1110 nM. `Cn1c(-c2cn(-c3ccc(N)cn3)nc2C(F)(F)F)cnc1C(=O)Nc1ccc(C(=O)N2CCC3(CC2)CCN(C(=O)[C@@H]2C[C@@H](O)CN2)C3)c(Cl)c1` [Example Z22, 5-[1-(5-amino-2-pyridyl)-3-(trifluoromethyl)pyrazol-4-yl]-N-[3-chloro-4-[2-[(2S,4R)-4-hydroxyprolyl]-2,8-diazaspiro[4.5]decane-8-carbonyl]phenyl]-1-methyl-imidazole-2-carboxamide] was tested, and the IC90 was 510 nM. With `Cc1nc(N)ccc1-n1cc(-c2cnc(C(=O)Nc3ccc(C(=O)N4CCN(C(=O)C5CCNCC5)CC4)c(Cl)c3)n2C)c(C(F)(F)F)n1` [Example Z79, 5-[1-(6-amino-2-methyl-3-pyridyl)-3-(trifluoromethyl)pyrazol-4-yl]-N-[3-chloro-4-[4-(piperidine-4-carbonyl)piperazine-1-carbonyl]phenyl]-1-methyl-imidazole-2-carboxamide] the IC90 was 1200 nM.

These compounds were tested on Acinetobacter baumannii ATCC17978 (assay: Minimal Inhibitory Concentration (MIC) assay). Details: Acinetobacter baumannii ATCC17978; CAMHB; 20 hours at 35±2° C.; lowest concentration that inhibits visible growth; read-out: ATCC 17978 MIC.
Type: cell-based
Procedure: Minimal Inhibitory Concentration Protocol (MIC) Assay:
Table 2 provides the in vitro potency of the compounds of present invention obtained against the strain Acinetobacter baumannii ATCC17978, which was assessed by an MIC (Minimal Inhibitory Concentration) assay as follows.
Test compounds were prepared from 10 mM DMSO stock solutions. The top dose was diluted from 10 mM to 2.5 mM by DMSO, followed by serial 2-fold 11 points dilutions in DMSO in a master plate (Greiner, Cat No: 651201). 2 μL compounds were transferred from the master plate into a new 96-well assay plate (Costar, 3599).
The growth medium […] Mueller Hinton Broth (CAMHB) was prepared by adding 22 g powder (BD, 212322) in 1 L purified water, autoclaved, and supplemented with sterilized CaCl2) (20 mg per liter) and MgCl2 (10 mg per liter).
Vials of each of the test microorganisms were maintained frozen in the vapor phase of a liquid nitrogen freezer. Took out the bacterial strain ATCC 17978 from liquid nitrogen freezer, thawed it at room temperature, and diluted the bacterial in the CAMHB medium to achieve a final inoculum of 2×10^5 CFU/mL. 98 μL of the adjusted bacteria suspension was dispensed to the assay plate and pipetted 5 times.
Then the assay plates were incubated for 20 hours at 35±2° C. in ambient air with humidity. Following incubation, MIC (μg/mL) value, the lowest concentration of drug that inhibits visible growth of the microorganism, was recorded by visual judgment of bacterial growth through magnification mirror of MIC reader, and the assay plates were photographed with Qcount system as image raw data. Meanwhile, the OD600 of assay plates was recorded with SpectraMax Plus384 as OD raw data.
Work on `Cc1nn(-c2ccc(N)cn2)cc1-c1cnc(C(=O)Nc2ccc(C(=O)N3CCN(C(=O)C4CCN(C)CC4)CC3)c(Cl)c2)n1C` [Example C12, 5-[1-(5-amino-2-pyridyl)-3-methyl-pyrazol-4-yl]-N-[3-chloro-4-[4-(1-methylpiperidine-4-carbonyl)piperazine-1-carbonyl]phenyl]-1-methyl-imidazole-2-carboxamide] yielded an MIC of 38 µg/mL (≈ 58.8 µM). With `CNc1ccc(-n2cc(-c3cnc(C(=O)Nc4ccc(C(=O)N5CCN(C(=O)C6(O)CCNCC6)CC5)c(Cl)c4)n3C)c(C(F)(F)F)n2)nc1.O=CO` [Example D3, N-[3-chloro-4-[4-(4-hydroxypiperidine-4-carbonyl)piperazine-1-carbonyl]phenyl]-1-methyl-5-[1-[5-(methylamino)-2-pyridyl]-3-(trifluoromethyl)pyrazol-4-yl]imidazole-2-carboxamide] the MIC was 1.16 µg/mL. `Cn1c(-c2cn(-c3ncccn3)nc2C(F)(F)F)cnc1C(=O)Nc1ccc(C(=O)N[C@H]2[C@@H]3CN(C(=O)[C@@H]4C[C@@H](O)CN4)C[C@@H]32)c(Cl)c1.O=CO` [Example F2, N-[3-chloro-4-[[(1R,5S)-3-[(2S,4R)-4-hydroxypyrrolidine-2-carbonyl]-3-azabicyclo[3.1.0]hexan-6-yl]carbamoyl]phenyl]-1-methyl-5-[1-pyrimidin-2-yl-3-(trifluoromethyl)pyrazol-4-yl]imidazole-2-carboxamide] gave an MIC of 4.43 µg/mL. `CN(C)c1ccnc(-n2ncc(-c3cnc(C(=O)Nc4ccc(C(=O)N5CCN(C(=O)C6CCNCC6)CC5)c(Cl)c4)n3C)c2C(F)(F)F)n1.O=C(O)C(F)(F)F` [Example A18, N-[3-chloro-4-[4-(piperidine-4-carbonyl)piperazine-1-carbonyl]phenyl]-5-[1-[4-(dimethylamino)pyrimidin-2-yl]-5-(trifluoromethyl)pyrazol-4-yl]-1-methyl-imidazole-2-carboxamide] gave an MIC of 2.23 µg/mL. `COCCOc1ccc(-n2cc(-c3cnc(C(=O)Nc4ccc(C(=O)N5CCN(C(=O)C6CCNCC6)CC5)c(Cl)c4)n3C)c(C(F)(F)F)n2)nc1.O=CO` [Example A7, N-[3-chloro-4-[4-(piperidine-4-carbonyl)piperazine-1-carbonyl]phenyl]-5-[1-[5-(2-methoxyethoxy)-2-pyridyl]-3-(trifluoromethyl)pyrazol-4-yl]-1-methyl-imidazole-2-carboxamide] was tested, and the MIC was 1.16 µg/mL.

Same assay, conditions: Acinetobacter baumannii, ATCC17978, 20 h, read-out: ATCC 17978 MIC
`CNc1ccc(-n2cc(-c3cnc(C(=O)Nc4ccc(C(=O)N5CCN(C(=O)C6CCNCC6)CC5)c(Cl)c4)n3C)c(C(F)(F)F)n2)nc1` [Example D1, N-[3-chloro-4-[4-(piperidine-4-carbonyl)piperazine-1-carbonyl]phenyl]-1-methyl-5-[1-[5-(methylamino)-2-pyridyl]-3-(trifluoromethyl)pyrazol-4-yl]imidazole-2-carboxamide] was tested, and the MIC was 0.55 µg/mL (≈ 0.787 µM).
